Here are results for 9 compounds from US4598076A, “2-pyrrolin-3-carbonitril-derivatives, pharmaceutical compositions containing them and their anti-inflammatory and ulcer protective activity” (Warner-Lambert Company, priority 1982, dated 1986).

The subject of data set [1] is stomach ulcers in rats induced by indomethacin. The experiment in a line: Ulcer-protective action on stomach ulcers in rats induced by indomethacin. Type of data set: in vivo, rats (SIV 50). The settings on record: with 40 mg/kg indomethacin, 5 hours. The procedure:
The experimental animals used were male rats (SIV 50), fasted for 20 hours, with a body weight of 170 to 220 g. Water was available ad libitum. The animals were simultaneously given intragastrally 40 mg./kg. indomethacin and the test substance in the form of a suspension in 0.8% "Methocel". The control animals only received the corresponding dosage of indomethacin. 10 animals were used for each experimental group. The volume administered was 10 ml./kg. body weight. 5 hours after administration, the animals were sacrificed. After removal of the stomach and opening along the curvatura major, this was investigated with a stereomagnifier for the presence of ulcers. […] The ulcer index of the animals treated with indomethacin and test substance was compared with that of the control animals which had only been treated with indomethacin and the ulcer inhibition calculated therefrom as a percentage.

The test system of data set [2] is carrageenin oedema in rats. The experiment in a line: Antiphlogistic action against carrageenin oedema in rats. Type of data set: in vivo, rats (SIV 50). The settings on record: for inhibition of the paw volume: 3 hours after carrageenin; for antiphlogistic properties (in words): carrageenin oedema. The procedure:
The experimental animals used were male rats (SIV 50), fasting for 20 hours, with a body weight of 110 to 160 g. Water was available ad libitum. After determination of the initial value of the paw volume of the right hind leg, the test substance was administered intragastrally as a suspension in 1% tragacanth slurry. 10 animals were used per dosage group. The volume administered was 20 ml./kg. body weight. The paw volume was measured by means of mercury displacement. 60 minutes after intragastral administration of the test substances, 0.1 ml. of a 1% carrageenin solution was injected subplantarily into the right hind paw. 1 and 3 hours after injection of the carrageenin, the paw volume of the oedematous paw was measured. The increase of the paw volume of the test substance-treated animals after 3 hours was compared with that of the control animals and the inhibition of the paw oedema by the test substance was calculated therefrom as a percentage.
A general note: In the carrageenan paw model, swelling and tenderness develop within hours.

The subject of data set [3] is gastric juice secretion in rats. The data set can be described thus: Influence on gastric juice secretion in rats (Shay, pyloric ligature). Type of data set: in vivo, rats (SIV 50). As to conditions: 4 hours after pyloric ligature. The procedure: According to the method described by H. Shay et al. (Gastroenterology, 5, 43-61/1945), male rats (SIV 50) with a body weight of 160 to 200 g. were fasted for 48 hours before commencement of the experiment. Water was available to the animals ad libitum. The test substances were administered intragastrally as a suspension in 1% tragacanth slurry. The volume administered was 10 ml./kg. body weight. 8 animals were used per experimental group. One hour after administration of the substance, a pyloric ligature was applied under light ether narcosis. 4 hours after this intervention, the animals were sacrificed. The extirpated stomach was opened up along the curvatura major and the volume of the secretion was measured and compared with the data obtained from the control group.

The nature of data set [4]: Acute toxicity on mice (LD50, 7 day observation). The settings on record: mouse, in vivo, po; male NMRI mice, intragastral, 7 day observation. The procedure:
(§1) The determination of the acute toxicity was carried out on male mice (NMRI) with a body weight of from 18 to 23 g. All the experimental animals fasted for 20 hours before commencement of the experiment. Water was available ad libitum. Each dosage grouping contained 4 animals. The dosage sequence was logarithmic. The test compounds were administered intragastrally as suspensions in 1% tragacanth slurry. The volume administered was 20 ml./kg. body weight.
(§2) The following Table gives the LD50 values after a 7 day observation period of the animals: […]

Another data set has as its system male mice (NMRI). The experiment in a line: Acute toxicity on mice (LD50, 7 day observation). As to conditions: mouse, in vivo. The procedure:
as §1, §2

Bounds are passed on as bounds.

By LD50 is commonly meant the dose expected to kill half of the subjects tested. The compound `CCN(CC)CCSC1=C(C#N)C(c2ccc(N(C)C)cc2)(c2cccnc2)C(=O)N1` (stereo not drawn) [Example 4a, 2-(2-diethylaminoethylthio)-4-(4-dimethylaminophenyl)-5-oxo-4-(3-pyridyl)-2-pyrrolin-3-carbonitril] gave a ulcer inhibition in data set [1] (125 mg/kg intragastral) of 84%. Moreover, the “inhibition of the paw volume” value in data set [2] (50 mg/kg intragastrally) worked out at 59%; in data set [2] (100 mg/kg intragastrally), 77%. For the same compound, the “antiphlogistic properties (in words)” value in data set [2] is recorded as “most effective compounds”. The “inhibition of gastric juice secretion” value in data set [3] (62.5 mg/kg intragastral) is 45%; in data set [3] (125 mg/kg intragastral) it was 64%; in data set [3] (250 mg/kg intragastral), 73%. In data set [4], this compound yielded a median lethal dose (LD50) at 168 h of 800 mg/kg.

For the compound `CN(C)c1ccc(C2(c3cccnc3)C(=O)NC(SCCN3CCOCC3)=C2C#N)cc1` (stereo not drawn) [Example 4b, 4-(4-dimethylaminophenyl)-2-(2-morpholinoethylthio)-5-oxo-4-(3-pyridyl)-2-pyrroline-3-carbonitrile], the “inhibition of gastric juice secretion” value came out at 24% in data set [3] (50 mg/kg intragastral), 63% in data set [3] (100 mg/kg intragastral) and 76% in data set [3] (200 mg/kg intragastral). The same compound showed an LD50 at 168 h in data set [4] of 400 mg/kg.

On to `CN(C)c1ccc(C2(c3cccnc3)C(=O)NC(SCCN3CCCCC3)=C2C#N)cc1` (stereo not drawn) [Example 4d, 4-(4-dimethylaminophenyl)-2-(2-piperidinoethylthio)-5-oxo-4-(3-pyridyl)-2-pyrroline-3-carbonitrile], for which the “inhibition of the paw volume” value in data set [2] (50 mg/kg intragastrally) came out at 26%; in data set [2] (125 mg/kg intragastrally) it was 83%. In addition, the “inhibition of gastric juice secretion” value in data set [3] (125 mg/kg intragastral) was determined as 48%; in data set [3] (250 mg/kg intragastral), 76%. Further, the LD50 at 168 h in data set [4] was 1600 mg/kg.

Turning to `CN(C)c1ccc(C2(c3cccnc3)C(=O)NC(SCCN3CCCC3)=C2C#N)cc1` (stereo not drawn) [Example 4e, 4-(4-dimethylaminophenyl)-2-(2-pyrrolidinoethylthio)-5-oxo-4-(3-pyridyl)-2-pyrroline-3-carbonitrile], the “inhibition of the paw volume” value in data set [2] (25 mg/kg intragastrally) came to 37%; in data set [2] (50 mg/kg intragastrally), 70%. Moreover, the “antiphlogistic properties (in words)” value in data set [2] was “most effective compounds”. In data set [4], this compound registered a median lethal dose (LD50) at 168 h above 1600 mg/kg.

For `CN(C)CCSC1=C(C#N)C(c2ccc(N(C)C)cc2)(c2cccnc2)C(=O)N1` (stereo not drawn) [Example 4g, 2-(2-dimethylaminoethylthio)-4-(4-dimethylaminophenyl)-5-oxo-4-(3-pyridyl)-2-pyrroline-3-carbonitrile], the “inhibition of the paw volume” value in data set [2] (50 mg/kg intragastrally) is 25%; in data set [2] (100 mg/kg intragastrally), 61%. The same compound registered an LD50 at 168 h in data set [4] of 1600 mg/kg.

Compound `CSC1=C(C#N)C(c2ccc(N(C)C)cc2)(c2cccnc2)C(=O)N1` (stereo not drawn) [Example 4i, 4-(4-dimethylaminophenyl)-2-methylthio-5-oxo-4-(3-pyridyl)-2-pyrroline-3-carbonitrile] registered a ulcer inhibition in data set [1] (50 mg/kg intragastral) of 88%. For the same compound, the “compatibility (in words)” value in the data set with male mice (NMRI) is recorded as “good compatibility”. Moreover, the LD50 at 168 h in data set [4] is above 1600 mg/kg.

In the case of `CCN(CC)CCCSC1=C(C#N)C(c2ccc(N(C)C)cc2)(c2cccnc2)C(=O)N1` (stereo not drawn) [Example 4k, 2-(3-diethylaminopropylthio)-4-(4-dimethylaminophenyl)-5-oxo-4-(3-pyridyl)-2-pyrroline-3-carbonitrile], the values for the ulcer inhibition in data set [1] (50 mg/kg intragastral) and in data set [1] (100 mg/kg intragastral) were 33% and 94%, respectively. The compound also returned an LD50 at 168 h in data set [4] of 300 mg/kg.

`N#CC1=C(SCCN2CCOCC2)NC(=O)C1(c1ccccc1)c1cccs1` (stereo not drawn) [Example 6c, 2-(2-morpholinoethylthio)-5-oxo-4-phenyl-4-(2-thienyl)-2-pyrroline-3-carbonitrile]: the “inhibition of the paw volume” value in data set [2] (125 mg/kg intragastrally) was 6%; in data set [2] (250 mg/kg intragastrally) it was 45%. For the same compound, the median lethal dose (LD50) at 168 h in data set [4] was above 1600 mg/kg.

As for `N#CC1=C(SCCN2CCCC2)NC(=O)C1(c1ccccc1)c1cccs1` (stereo not drawn) [Example 6f, 5-oxo-4-phenyl-2-(2-pyrrolidinoethylthio)-4-(2-thienyl)-2-pyrroline-3-carbonitrile], the “inhibition of the paw volume” value in data set [2] (125 mg/kg intragastrally) is listed as 24%; in data set [2] (250 mg/kg intragastrally), 45%. Moreover, in data set [4], the LD50 at 168 h is above 1600 mg/kg.
